Laboratory results published in patent publication US11464749B2, “Bismuth-thiol compositions and methods of use” (Microbion Corporation, priority 2018, dated 2022).
Values after ≈ are worked out from the molar mass of the structure shown. Like-named read-outs stand apart in the source and are kept apart here.

Experiments:
Klebsiella pneumoniae = assay: Broth microdilution MIC (Example 11)
Pseudomonas aeruginosa [1] = assay: Broth microdilution MIC (Example 11)
Enterobacter cloacae = assay: Broth microdilution MIC (Example 11); details: ATCCBAA2468
[2] = tested on: Staphylococcus aureus (MRSA); assay: Broth microdilution MIC (Example 11)
[3] = tested on: vancomycin-intermediate Staphylococcus aureus (VISA); assay: Broth microdilution MIC (Example 12); details: Staphylococcus aureus, NRS13 / VISA, read-out: MIC values
Escherichia coli [4] = assay: Broth microdilution MIC (Example 11)
Haemophilus influenzae = assay: Broth microdilution MIC against Haemophilus influenzae clinical isolates; details: Haemophilus influenzae
S. pyogenes = assay: Broth microdilution MIC (Example 11); details: Streptococcus pyogenes
S. pneumoniae = assay: Broth microdilution MIC (Example 11); details: Streptococcus pneumoniae
Pseudomonas aeruginosa [5] = details: P. aeruginosa MMX 103 (ATCC 27853); CLSI QC ranges shown in parenthesis; cited from earlier work
E. faecalis = assay: Broth microdilution MIC (Example 11); details: VRE Lev^R Cip^R Ery^R
Escherichia coli [6] = details: E. coli MMX 102 (ATCC 25922); CLSI QC ranges shown in parenthesis; cited from earlier work
S. agalactiae = assay: Broth microdilution MIC (Example 11); details: Streptococcus agalactiae
Acinetobacter baumannii = assay: Broth microdilution MIC (Example 11)
E. faecium = assay: Broth microdilution MIC (Example 11); details: VRE vanA Lev^R Cip^R Ery^R
S. aureus ATCC 29213 = details: control strain ATCC 29213; per CLSI M100-S24 or provided by Microbion; cited from earlier work
M. abscessus complex = assay: MIC against CF bacterial strains (Example 5); format: cell-based, Mycobacterium abscessus; details: Mycobacteroides abscessus, read-out: MIC
Procedure: A range of CF-isolated strains of Mycobacterium avium and Mycobacterium abscessus were included; which allows for understanding of the activity against non-tubercular Mycobacteria (NTM). Two distinct bismuth-thiol compounds were evaluated, including BisEDT and BisBDT. […] The CF-isolates of greater clinical relevance, including both M abscessus spp. and Burkholderia spp., were both consistently found to be much more susceptible to BisEDT and BisBDT.

Q: What does the source list for `C[C@H]1COc2c(N3CCN(C)CC3)c(F)cc3c(=O)c(C(=O)O)cn1c23` [Levofloxacin, reference compound]?
A: MIC (Klebsiella pneumoniae; K. pneumoniae MMX 4622, KPC-2, MEM^R, CAZ^R): 1 µg/mL (≈ 2.77 µM); MIC (Klebsiella pneumoniae; K. pneumoniae MMX 4623, KPC-2, MEM^R, CAZ^R, GM^R): 1 µg/mL (≈ 2.77 µM); MIC (Klebsiella pneumoniae; K. pneumoniae MMX 4653, KPC-3, Lev^R, MEM^R, CAZ^R): 64 µg/mL (≈ 177 µM); MIC (Klebsiella pneumoniae; K. pneumoniae MMX 4683, KPC-2, Lev^R, MEM^R, CAZ^R): > 64 µg/mL; MIC (Klebsiella pneumoniae; K. pneumoniae MMX 4684, ESBL, MEM^R): 0.03 µg/mL (≈ 0.083 µM); MIC (Klebsiella pneumoniae; K. pneumoniae MMX 4685, ESBL, Lev^R, MEM^R, CAZ^R): 32 µg/mL (≈ 88.6 µM); MIC (Klebsiella pneumoniae; K. pneumoniae MMX 4694, KPC-3, Lev^R, MEM^R, CAZ^R): 64 µg/mL (≈ 177 µM); MIC (Klebsiella pneumoniae; K. pneumoniae MMX 5979, NDM-1, Lev^R, MEM^R, CAZ^R, Gm^R): > 64 µg/mL; MIC (Pseudomonas aeruginosa [1]; Pseudomonas aeruginosa, ATCC27853, P. aeruginosa MMX 103 (ATCC 27853), QC): 1 µg/mL (≈ 2.77 µM); MIC (Pseudomonas aeruginosa [1]; Pseudomonas aeruginosa, P. aeruginosa MMX 1381, MDR, Lev^R, Cip^R, MEM^R, CAZ^R): 64 µg/mL (≈ 177 µM); MIC (Pseudomonas aeruginosa [1]; Pseudomonas aeruginosa, P. aeruginosa MMX 2562, MDR, Lev^R, Cip^R, MEM^R, CAZ^R): 64 µg/mL (≈ 177 µM); MIC (Pseudomonas aeruginosa [1]; Pseudomonas aeruginosa, P. aeruginosa MMX 3991, MDR, Lev^R, Cip^R, MEM^R, CAZ^R): 64 µg/mL (≈ 177 µM); MIC (Pseudomonas aeruginosa [1]; Pseudomonas aeruginosa, P. aeruginosa MMX 4654, IMP-7, Lev^R, Cip^R, MEM^R, CAZ^R): 64 µg/mL (≈ 177 µM); MIC (Pseudomonas aeruginosa [1]; Pseudomonas aeruginosa, P. aeruginosa MMX 4697, VIM-2, Lev^R, Cip^R, MEM^R, CAZ^R): 32 µg/mL (≈ 88.6 µM); MIC (Enterobacter cloacae): 64 µg/mL (≈ 177 µM); MIC ([2]; ATCC29213|MRSA|MSSA, S. aureus MMX 101 (ATCC 29213), QC, MSSA): 0.12 µg/mL (≈ 0.332 µM); MIC ([2]; MRSA, S. aureus MMX 5373, MRSA Lev^R Cip^R CC^R Ery^R Ox^R): 32 µg/mL (≈ 88.6 µM); MIC ([2]; MRSA, S. aureus MMX 6311, MRSA Lev^R Cip^R CC^R Ery^R Ox^R): 32 µg/mL (≈ 88.6 µM); MIC ([2]; MRSA, S. aureus MMX 9203, MRSA Lev^R Cip^R Ery^R Ox^R): 4 µg/mL (≈ 11.1 µM); MIC ([2]; MRSA, S. aureus MMX 9204, MRSA Lev^R Cip^R Ery^R Ox^R): 4 µg/mL (≈ 11.1 µM); MIC ([2]; MRSA, S. aureus MMX 9205, MRSA Lev^R Cip^R CC^R Ery^R Ox^R): > 64 µg/mL; MIC [3]: ≥ 4 µg/mL; MIC (Escherichia coli [4]; ATCC25922, E. coli MMX 102 (ATCC 25922), QC): 0.015 µg/mL (≈ 0.0415 µM); MIC (Escherichia coli [4]; ATCCBAA2469, E. coli MMX 5980 (ATCC BAA-2469), NDM-1, Lev^R, MEM^R, CAZ^R, Gm^R): 16 µg/mL (≈ 44.3 µM); MIC (Escherichia coli [4]; E. coli MMX 8423, ESBL, Lev^R, CAZ^R, Gm^R): 16 µg/mL (≈ 44.3 µM); MIC (Escherichia coli [4]; E. coli MMX 8424, ESBL, CAZ^R): 0.06 µg/mL (≈ 0.166 µM); MIC (Escherichia coli [4]; E. coli MMX 8425, ESBL, Lev^R, CAZ^R, Gm^R): 16 µg/mL (≈ 44.3 µM); MIC50 (Haemophilus influenzae): 0.015 µg/mL (≈ 0.0415 µM); MIC90 (Haemophilus influenzae): 0.015 µg/mL (≈ 0.0415 µM); MIC (S. pyogenes; S. pyogenes MMX 3068, Ery^R): 0.5 µg/mL (≈ 1.38 µM); MIC (S. pyogenes; S. pyogenes MMX 3820, ERY^R CLI^R): 0.25 µg/mL (≈ 0.692 µM); MIC (S. pyogenes; S. pyogenes MMX 3919, ERY^R): 0.12 µg/mL (≈ 0.332 µM); MIC (S. pyogenes; S. pyogenes MMX 3929, ERY^R CC^R): 0.5 µg/mL (≈ 1.38 µM); MIC (S. pyogenes; S. pyogenes MMX 5091, ERY^R CC^R): 0.25 µg/mL (≈ 0.692 µM); MIC (S. pneumoniae; ATCC49619, S. pneumoniae MMX 6837 (ATCC 49619), QC): 0.5 µg/mL (≈ 1.38 µM); MIC (S. pneumoniae; S. pneumoniae MMX 880, Lev^R SXT^R CC^R Ery^R Pen^R): 8 µg/mL (≈ 22.1 µM); MIC (S. pneumoniae; S. pneumoniae MMX 937, Mem^R SXT^R CC^R Ery^R Pen^R): 1 µg/mL (≈ 2.77 µM); MIC (S. pneumoniae; S. pneumoniae MMX 3959, CC^R Ery^R): 1 µg/mL (≈ 2.77 µM); MIC (S. pneumoniae; S. pneumoniae MMX 5440, Mem^R SXT^R CC^R Ery^R Pen^R): 1 µg/mL (≈ 2.77 µM); MIC (S. pneumoniae; S. pneumoniae MMX 5445, Mem^R SXT^R CC^R Ery^R Pen^R): 1 µg/mL (≈ 2.77 µM); MIC (S. pneumoniae; S. pneumoniae MMX 8133, Mem^R SXT^R CC^R Ery^R Pen^R): 1 µg/mL (≈ 2.77 µM); CLSI QC range of MIC (Pseudomonas aeruginosa [5]): (0.5-4) μg/mL; MIC (E. faecalis; Enterococcus faecalis, VRE, E. faecalis MMX 8960): 32 µg/mL (≈ 88.6 µM); MIC (E. faecalis; Enterococcus faecalis, VRE, E. faecalis MMX 8961): 64 µg/mL (≈ 177 µM); MIC (E. faecalis; Enterococcus faecalis, VRE, E. faecalis MMX 8962): 64 µg/mL (≈ 177 µM); CLSI QC range of MIC (Escherichia coli [6]): (0.008-0.06)^1 μg/mL; MIC (S. agalactiae; S. agalactiae MMX 3741, ERY^R CC^R): 0.5 µg/mL (≈ 1.38 µM); MIC (S. agalactiae; S. agalactiae MMX 3743, ERY^R CC^R): 1 µg/mL (≈ 2.77 µM); MIC (S. agalactiae; S. agalactiae MMX 4077, ERY^R CC^R): 0.5 µg/mL (≈ 1.38 µM); MIC (S. agalactiae; S. agalactiae MMX 4079, ERY^R CC^R Pen^R MEM^R): 1 µg/mL (≈ 2.77 µM); MIC (S. agalactiae; S. agalactiae MMX 4086, ERY^R CC^R): 0.5 µg/mL (≈ 1.38 µM); MIC (Acinetobacter baumannii; Acinetobacter baumannii, A. baumannii MMX 2592, MDR, Lev^R, Cip^R, MEM^R, CAZ^R, Gm^R): 64 µg/mL (≈ 177 µM); MIC (Acinetobacter baumannii; Acinetobacter baumannii, A. baumannii MMX 2593, MDR, Lev^R, Cip^R, MEM^R, CAZ^R, Gm^R): 32 µg/mL (≈ 88.6 µM); MIC (Acinetobacter baumannii; Acinetobacter baumannii, A. baumannii MMX 3372, MDR, Cip^R, MEM^I, CAZ^I): 1 µg/mL (≈ 2.77 µM); MIC (Acinetobacter baumannii; Acinetobacter baumannii, A. baumannii MMX 3373, Sensitive): 0.12 µg/mL (≈ 0.332 µM); MIC (Acinetobacter baumannii; Acinetobacter baumannii, NCTC13304, A. baumannii MMX 4651 (NCTC 13304), MDR, OXA-27, Lev^R, Cip^R, MEM^R, CAZ^R, Gm^I): 8 µg/mL (≈ 22.1 µM)

Q: Which MIC (Pseudomonas aeruginosa [1]; P. aeruginosa MMX 103 (ATCC 27853), QC) does the source give for Gentamicin here?
A: 1 µg/mL

Q: And the MIC (Pseudomonas aeruginosa [1]; P. aeruginosa MMX 1381, MDR, Lev^R, Cip^R, MEM^R, CAZ^R)?
A: 8 µg/mL

Q: And the MIC (Pseudomonas aeruginosa [1]; P. aeruginosa MMX 2562, MDR, Lev^R, Cip^R, MEM^R, CAZ^R)?
A: 8 µg/mL

Q: What about the MIC (Pseudomonas aeruginosa [1]; P. aeruginosa MMX 3991, MDR, Lev^R, Cip^R, MEM^R, CAZ^R) of the same molecule?
A: 4 µg/mL

Q: What about the MIC (Pseudomonas aeruginosa [1]; P. aeruginosa MMX 4654, IMP-7, Lev^R, Cip^R, MEM^R, CAZ^R) of the same molecule?
A: >64 µg/mL

Q: And the MIC (Pseudomonas aeruginosa [1]; P. aeruginosa MMX 4697, VIM-2, Lev^R, Cip^R, MEM^R, CAZ^R)?
A: 4 µg/mL

Q: And the MIC (E. faecium; E. faecium MMX 485)?
A: >64 µg/mL

Q: What about the MIC (E. faecium; E. faecium MMX 752) of the same molecule?
A: >64 µg/mL

Q: What about the “CLSI QC range of MIC” value (Pseudomonas aeruginosa [5]) of the same molecule?
A: (0.5-2) μg/mL

Q: What about the MIC (E. faecalis; E. faecalis MMX 8960) of the same molecule?
A: >64 µg/mL

Q: And the MIC (E. faecalis; E. faecalis MMX 8961)?
A: 8 µg/mL

Q: And the MIC (E. faecalis; E. faecalis MMX 8962)?
A: >64 µg/mL

Q: What about the “CLSI QC range of MIC” value (Escherichia coli [6]) of the same molecule?
A: (0.25-1) μg/mL

Q: And the MIC (Acinetobacter baumannii; A. baumannii MMX 2592, MDR, Lev^R, Cip^R, MEM^R, CAZ^R, Gm^R)?
A: >64 µg/mL

Q: What about the MIC (Acinetobacter baumannii; A. baumannii MMX 2593, MDR, Lev^R, Cip^R, MEM^R, CAZ^R, Gm^R) of the same molecule?
A: >64 µg/mL

Q: And the MIC (Acinetobacter baumannii; A. baumannii MMX 3372, MDR, Cip^R, MEM^I, CAZ^I)?
A: 0.5 µg/mL

Q: And the MIC (Acinetobacter baumannii; A. baumannii MMX 3373, Sensitive)?
A: 0.12 µg/mL

Q: What about the MIC (Acinetobacter baumannii; A. baumannii MMX 4651 (NCTC 13304), MDR, OXA-27, Lev^R, Cip^R, MEM^R, CAZ^R, Gm^I) of the same molecule?
A: 8 µg/mL

Q: For `CC[C@H]1OC(=O)[C@H](C)[C@@H](O[C@H]2C[C@@](C)(OC)[C@@H](O)[C@H](C)O2)[C@H](C)[C@@H](O[C@@H]2O[C@H](C)C[C@H](N(C)C)[C@H]2O)[C@](C)(OC)C[C@@H](C)C(=O)[C@H](C)[C@@H](O)[C@]1(C)O` [Clarithromycin, reference compound], which “Expected MIC: goal (acceptable range)” value (S. aureus ATCC 29213) is on record?
A: 0.25 (0.12-0.5) mcg/mL

Q: And the MIC (M. abscessus complex; AMT0130-8, M abscessus/massiliense complex)?
A: 1 µg/mL (≈ 1.34 µM)

Q: What about the MIC (M. abscessus complex; AMT153-9, M abscessus/massiliense complex) of the same molecule?
A: 2 µg/mL (≈ 2.67 µM)

Q: What about the MIC (M. abscessus complex; AMT0493-2, M abscessus/massiliense complex, Amikacin resistant) of the same molecule?
A: 2 µg/mL (≈ 2.67 µM)

Q: And the MIC (M. abscessus complex; ATCC19977, ATCC 19977, M abscessus/massiliense complex, Macrolide resistant (inducible))?
A: > 32 µg/mL
